Source: patent publication US20030022253A1, “Method for identifying, isolating and producing neuroactive binding agents and binding agents derived thereby” (Nyxis Neurotherapies, Inc., priority 2001, published 2003)
Read-outs that look alike come from different tables or passages of the source. Each block holds one molecule with its values, some of them ahead of it.

Tests used:
[1] = target: T1, NMDA receptor-ion channel complex (Rattus norvegicus, UniProt P35439); assay: [3H]TCP binding assay on washed hippocampal membranes
T1 construct: other: in the presence of 25 μM of B6B21; other: agonist alone
Method: (§1) Tissue Preparation. Crude synaptic membranes were prepared from rat Hippocampi or from rat forebrains (male Sprague-Dawley rats) and washed extensively to remove endogenous amino acids, as previously described by Ransom and Stec ((1988) Brain Res. 444, 25-32). […] Membranes were then pelleted by centrifugation at 48,000 g for 20 min. This step was repeated twice and the homogenate was stored at −70′ in the same buffer. Before each use, homogenates were thawed at room temperature, pelleted, and washed four additional times. […] The final washed membranes were resuspended at concentrations of 2-3 mg/ml in either 5 mM Tris-HCl buffer or 5 mM Tris-acetate buffer.
(§2) TCP binding assay. Measurements of specific [^3H]TCP binding were performed as described previously (Haring R., Kloog Y., Harshak-Felixbrodt N., and Sokolovsky M. (1987) Biochem. Biophys. Res. Commun. 142, 501-510). Final reaction of mixtures consisted of 50-100 μg of membrane protein in 200 μl of 5 mM Tris-HCl buffer and contained either [^3H]TCP, or [^3H]TCP and the appropriate concentration of NMDA-receptor ligands or MAbs. Reactions were initiated by the addition of the membranes to the reaction mixtures. Unless otherwise indicated, binding assays were performed under nonequilibrium conditions at 25° C. for 1 hr. Nonspecific binding was determined in parallel samples containing 100 μM unlabeled PCP. Binding reactions were terminated by filtration on Whatman GF/B glass filters that had been pretreated with 0.1% polyethyleneimine for 1 hr. The dissociation of [^3H]TCP from its membrane-binding site was measured after equilibrating the receptors with 20 nM [^3H]TCP for 120 min. The dissociation reaction was initiated by the addition of 100 μM unlabeled PCP in the presence and absence of NMDA-receptor ligands or MAb. Reactions were terminated immediately (zero time) and after incubation for the additional periods of time indicated.

[2] = target: T2, NMDA receptor-ion channel complex; assay: as above; design: species or system rat; conditions: antagonist alone, no glutamate or glycine added; read-out: IC50, inhibition of [3H]TCP binding
T2 construct: other: antagonist alone, no glutamate or glycine added; other: combined addition, 50 μM of each
Method: as §1, §2

[3] = target: NMDA receptor-ion channel complex; assay: as above; design: species or system rat
Method: as §1, §2

[4] = target: T3, glycine-binding site of the NMDA-receptor complex (Rattus norvegicus, UniProt P35439); assay: [3H]glycine binding assay; conditions: Scatchard analysis, no antibody
T3 construct: Crude synaptic membranes were prepared from rat Hippocampi or from rat forebrains (male Sprague-Dawley rats); from tissue; host or cells: rat hippocampal or forebrain crude synaptic membranes (male Sprague-Dawley), Triton X-100 treated
Method: as §1

learning [5] = conditions: rats, IV doses up to 2 mg/kg; cited from earlier work
NMDA receptor complex = target: T4, NMDA receptor complex (Rattus norvegicus, UniProt P35439); assay: Modified glycine site-dependent [3H]MK-801 binding assay with 7-chlorokynurenic acid; conditions: at 10^−6 M
T4 construct: Crude synaptic membranes were prepared using rat hippocampal tissue (male Sprague-Dawley rats); from tissue; host or cells: rat hippocampal crude synaptic membranes (male Sprague-Dawley)

learning [6] = conditions: rats, IV doses up to 2 mg/kg; cited from earlier work; remark: listed apart in the source

T1 sequence (Q00959 23-1464, other chains not shown): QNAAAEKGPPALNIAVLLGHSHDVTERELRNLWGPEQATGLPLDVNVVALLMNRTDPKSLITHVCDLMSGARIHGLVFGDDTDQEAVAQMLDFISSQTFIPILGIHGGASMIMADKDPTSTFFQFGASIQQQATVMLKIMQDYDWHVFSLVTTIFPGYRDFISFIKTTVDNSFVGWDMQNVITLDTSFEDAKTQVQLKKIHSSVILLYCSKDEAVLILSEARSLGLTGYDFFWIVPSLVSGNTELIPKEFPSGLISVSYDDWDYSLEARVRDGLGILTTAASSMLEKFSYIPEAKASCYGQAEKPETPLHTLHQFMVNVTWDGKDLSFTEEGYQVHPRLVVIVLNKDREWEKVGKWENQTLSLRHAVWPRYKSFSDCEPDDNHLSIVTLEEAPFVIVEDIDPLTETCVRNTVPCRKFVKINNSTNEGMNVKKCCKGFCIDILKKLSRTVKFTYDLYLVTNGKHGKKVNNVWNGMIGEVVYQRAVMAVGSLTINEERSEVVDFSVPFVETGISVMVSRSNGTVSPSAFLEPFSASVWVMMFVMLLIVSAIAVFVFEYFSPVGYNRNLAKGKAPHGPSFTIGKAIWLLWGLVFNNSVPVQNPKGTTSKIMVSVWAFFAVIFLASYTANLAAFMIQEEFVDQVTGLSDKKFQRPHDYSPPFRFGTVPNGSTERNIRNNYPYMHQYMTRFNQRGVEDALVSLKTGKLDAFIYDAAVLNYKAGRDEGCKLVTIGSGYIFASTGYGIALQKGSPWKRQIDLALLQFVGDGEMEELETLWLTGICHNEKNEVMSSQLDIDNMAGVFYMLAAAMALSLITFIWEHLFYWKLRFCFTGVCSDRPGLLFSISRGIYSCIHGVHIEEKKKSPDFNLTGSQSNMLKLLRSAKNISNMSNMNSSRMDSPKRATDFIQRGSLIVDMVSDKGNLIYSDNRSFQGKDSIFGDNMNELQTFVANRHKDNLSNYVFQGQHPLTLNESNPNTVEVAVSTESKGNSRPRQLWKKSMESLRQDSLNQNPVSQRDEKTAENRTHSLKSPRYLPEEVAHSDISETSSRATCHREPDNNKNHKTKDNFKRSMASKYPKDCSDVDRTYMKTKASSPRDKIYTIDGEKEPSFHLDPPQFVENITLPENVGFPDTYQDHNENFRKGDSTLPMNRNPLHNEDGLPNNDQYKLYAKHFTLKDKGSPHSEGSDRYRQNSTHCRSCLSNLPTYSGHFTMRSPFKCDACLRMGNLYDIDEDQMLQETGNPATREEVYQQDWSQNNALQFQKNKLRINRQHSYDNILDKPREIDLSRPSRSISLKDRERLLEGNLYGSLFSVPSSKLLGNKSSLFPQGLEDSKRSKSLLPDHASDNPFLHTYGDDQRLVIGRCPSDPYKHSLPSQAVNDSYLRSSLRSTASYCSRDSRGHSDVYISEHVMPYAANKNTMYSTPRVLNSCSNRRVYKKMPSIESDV
T1 sequence (Q00960 27-1482, other chains not shown, further chain): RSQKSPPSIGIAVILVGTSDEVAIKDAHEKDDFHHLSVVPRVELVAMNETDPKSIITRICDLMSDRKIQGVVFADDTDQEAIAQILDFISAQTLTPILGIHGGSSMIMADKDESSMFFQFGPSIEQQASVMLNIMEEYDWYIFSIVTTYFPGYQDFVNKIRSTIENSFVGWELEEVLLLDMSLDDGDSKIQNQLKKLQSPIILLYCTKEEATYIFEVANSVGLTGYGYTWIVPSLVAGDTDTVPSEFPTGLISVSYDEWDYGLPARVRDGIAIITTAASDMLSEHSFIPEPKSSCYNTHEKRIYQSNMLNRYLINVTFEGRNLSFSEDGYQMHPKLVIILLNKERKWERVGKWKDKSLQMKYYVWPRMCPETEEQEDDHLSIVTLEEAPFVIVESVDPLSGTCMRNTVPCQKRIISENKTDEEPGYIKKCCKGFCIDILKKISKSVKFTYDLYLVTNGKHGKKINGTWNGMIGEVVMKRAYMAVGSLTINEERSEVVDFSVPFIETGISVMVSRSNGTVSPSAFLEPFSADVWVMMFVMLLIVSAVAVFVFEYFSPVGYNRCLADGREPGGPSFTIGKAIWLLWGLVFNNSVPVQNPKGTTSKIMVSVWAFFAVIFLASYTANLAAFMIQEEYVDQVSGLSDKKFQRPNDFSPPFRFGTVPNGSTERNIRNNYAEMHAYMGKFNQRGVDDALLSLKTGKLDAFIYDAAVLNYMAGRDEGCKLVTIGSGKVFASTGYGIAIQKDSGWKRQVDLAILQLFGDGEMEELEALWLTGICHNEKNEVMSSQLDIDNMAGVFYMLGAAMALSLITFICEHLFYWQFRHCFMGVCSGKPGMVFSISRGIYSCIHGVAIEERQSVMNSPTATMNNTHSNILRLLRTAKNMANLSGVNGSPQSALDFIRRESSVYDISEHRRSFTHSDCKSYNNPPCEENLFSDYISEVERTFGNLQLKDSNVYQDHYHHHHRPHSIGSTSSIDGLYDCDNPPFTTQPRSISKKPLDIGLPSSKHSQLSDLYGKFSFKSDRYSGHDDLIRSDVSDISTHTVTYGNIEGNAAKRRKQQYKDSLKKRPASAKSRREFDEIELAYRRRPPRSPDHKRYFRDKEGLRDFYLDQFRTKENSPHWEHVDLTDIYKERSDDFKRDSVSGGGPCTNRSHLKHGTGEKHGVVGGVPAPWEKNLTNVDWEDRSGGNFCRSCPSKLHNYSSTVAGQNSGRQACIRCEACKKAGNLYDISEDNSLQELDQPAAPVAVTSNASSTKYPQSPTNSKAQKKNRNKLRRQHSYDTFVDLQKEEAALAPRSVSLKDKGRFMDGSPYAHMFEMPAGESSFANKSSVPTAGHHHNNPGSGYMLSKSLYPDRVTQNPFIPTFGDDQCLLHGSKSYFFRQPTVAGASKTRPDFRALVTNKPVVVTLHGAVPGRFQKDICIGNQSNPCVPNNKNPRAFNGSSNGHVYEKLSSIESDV

Molecule: N[C@@H](CCC(=O)O)C(=O)O [glutamate]
concentration giving maximal stimulation of specific [3H]TCP binding [1]: > 10 µM
specific [3H]TCP binding ([1]; maximally stimulating concentration, non-equilibrium 1 h, 25° C., control 63): 132 fmol/mg of protein

Molecule: O=C(O)c1cc(O)c2ccc(Cl)cc2n1 [7-Cl KYNA, 7-chlorokynurenic acid]
IC50 [2]: 6 µM
IC50 ([3]; in the presence of B6B21 (40 μg/ml), read-out: IC50, inhibition of [3H]TCP binding): 60 µM

Molecule: N[C@H](CCCP(=O)(O)O)C(=O)O [D-AP5, D-(−)-2-amino-5-phosphonovaleric acid]
IC50 [2]: 1.4 µM
IC50 ([1]; read-out: IC50, inhibition of [3H]TCP binding, in the presence of 50 μM glutamate): > 100 µM

Bmax of [3H]glycine binding [4]: 12.9 pmol/mg of protein
ability to abolish the inhibitory effect of D-AP5 on [3H]TCP binding ([3]; 50 μM glycine or 40 μg/ml B6B21): Neither glycine nor B6B21 could abolish
specific [3H]TCP binding ([3]; added to maximally stimulating glutamate): 310 fmol/mg of protein
specific [3H]TCP binding ([3]; in the absence of added glutamate, glycine 50 μM, B6B21 25 μM): 155 fmol/mg of protein
Molecule: NCC(=O)O [glycine]
potentiation of the glutamate effect on [3H]TCP binding ([3]; co-addition at concentrations giving maximal effects): potentiated the glutamate effect additively

Molecule: threonine-proline-proline-threonine [NT-13]
learning in the trace eyeblink paradigm (learning [5]): statistically significant increase in learning
[3H]MK-801 binding, % of control (NMDA receptor complex): 130%
learning in the Morris Water Maze (learning [6]): statistically significant increase in learning
